# From US8486991B2, “Enantiomerically pure phosphoindoles as HIV inhibitors” (Idenix Pharmaceuticals, Inc., priority 2006, dated 2013)
# Several values for one entry are separate records, joined by “and”; a condition that tells them apart may be missing. Equal entries are not always repeated. Entries after “also recorded” stand apart in the source; their conditions may differ. Where two headings read alike, the source gives them in different places.
# Tests used:
# [1] = Compound depletion in hepatocytes, monkey; assay type: in vitro ADME; details: up to 2 hours, read-out: t½, Compound Depletion in Hepatocytes, Monkey
# Protocol: (§1) Fresh hepatocytes were plated onto collagen-coated plates and exposed to test compounds at 1 μM for up to 2 hours. Tissue culture medium was assayed for compound depletion by LC/MS detection. Values in Table 23 represent independent experiments from 5 to 7 donors.
# [2] = Compound depletion in hepatocytes, human; assay type: in vitro ADME; details: up to 2 hours; for t½, Compound Depletion in Hepatocytes, Human: 1 μM; for half-life at 1 μM: human, read-out: t½, Compound Depletion in Hepatocytes, Human
# Protocol: as §1
# [3] = Plasma protein binding by equilibrium dialysis, dog; assay type: in vitro ADME; details: for fraction unbound: dog, read-out: Percentage Plasma Protein Binding, Dogs
# Protocol: The in vitro plasma protein binding of compound I and compound III in rat, dog, monkey and human plasma was determined by equilibrium dialysis. Protein binding was assessed by equilibrium dialysis using rat, dog, monkey and human plasma. Samples were assayed by HPLC with LC-MS/MS detection. Plasma protein binding was high (>99%) for all species and for both compounds.
# [4] = biological target: T1, CYP2B6 (Homo sapiens, UniProt P20813); assay: Recombinant CYP450 inhibition, fluorometric, CYP2B6; assay type: in vitro ADME; set-up: from tissue; host or cells: pooled human liver microsomes; details: read-out: percentage of inhibition at the highest concentration tested, CYP2B6
# T1 sequence (P20813 1-491): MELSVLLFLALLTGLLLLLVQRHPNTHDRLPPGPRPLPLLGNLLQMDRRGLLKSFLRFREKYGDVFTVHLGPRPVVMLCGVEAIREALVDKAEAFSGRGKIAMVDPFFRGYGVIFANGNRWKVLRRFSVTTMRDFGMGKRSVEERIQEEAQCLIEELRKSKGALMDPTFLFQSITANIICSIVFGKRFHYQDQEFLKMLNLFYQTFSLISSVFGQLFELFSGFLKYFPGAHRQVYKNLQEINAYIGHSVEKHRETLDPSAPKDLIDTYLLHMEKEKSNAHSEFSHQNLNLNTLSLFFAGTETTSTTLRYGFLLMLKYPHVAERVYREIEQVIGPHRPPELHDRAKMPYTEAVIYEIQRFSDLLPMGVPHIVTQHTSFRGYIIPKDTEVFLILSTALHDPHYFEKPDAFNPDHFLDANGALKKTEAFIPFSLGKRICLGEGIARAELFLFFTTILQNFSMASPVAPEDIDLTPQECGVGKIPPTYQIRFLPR
# Protocol: Compounds were assayed using recombinant human microsomal proteins with fluorometric substrates. Signal was measured with a Fusion plate reader utilizing the appropriate excitation and emission wavelength set to detect the specific metabolite: […]
# [5] = biological target: T1, CYP2B6; assay: Human liver microsomal CYP450 inhibition, CYP2B6; details: for IC50, CYP2B6: human liver microsomes
# Protocol: (§7) In addition, the type of inhibition was also evaluated.
# (§8) Enzyme kinetic studies of cytochrome P450 isozyme inhibition were conducted using human liver microsomes.
# [6] = system: MT-4 cells; assay: Cellular cytotoxicity, 4 days, MTS, MT-4; details: for CC50: read-out: Average CC50 Values ± Standard Deviation, MT-4, Table 21, 4 days, MTS
# Protocol: Following drug exposure for 4 days, cell viability was measured by MTS staining and CC50 values were determined. Drug concentrations ranged from 0.005 μM to 100 μM.
# The preceding data, allows us to calculate selectivity index (SI) values, based on the ratio of CC50 to EC50 in MT-4 cells (the standard assay used in this work).
# [7] = biological target: CYP2D6 (Homo sapiens, UniProt P10635); assay: Human liver microsomal CYP450 inhibition, CYP2D6; details: for IC50, CYP2D6: human liver microsomes
# Chain of CYP2D6 (P10635 whole entry): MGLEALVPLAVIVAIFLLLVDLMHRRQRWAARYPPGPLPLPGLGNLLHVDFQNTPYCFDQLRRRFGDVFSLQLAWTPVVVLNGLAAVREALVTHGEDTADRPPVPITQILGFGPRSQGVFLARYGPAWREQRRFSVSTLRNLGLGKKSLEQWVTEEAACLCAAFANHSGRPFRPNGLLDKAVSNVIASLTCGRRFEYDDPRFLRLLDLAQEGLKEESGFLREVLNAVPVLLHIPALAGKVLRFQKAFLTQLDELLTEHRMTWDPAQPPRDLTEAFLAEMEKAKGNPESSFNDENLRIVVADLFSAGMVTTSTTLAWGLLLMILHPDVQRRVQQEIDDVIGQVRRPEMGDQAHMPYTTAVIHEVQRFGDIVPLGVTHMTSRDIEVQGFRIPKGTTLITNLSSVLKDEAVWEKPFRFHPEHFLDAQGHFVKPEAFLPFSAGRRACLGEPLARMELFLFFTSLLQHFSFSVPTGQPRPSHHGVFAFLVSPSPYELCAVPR
# Protocol: as §7, §8
# [8] = system: cynomolgus monkeys; assay: 14-day oral toxicity, monkeys; assay type: in vivo, cynomolgus monkey; details: for effects on food consumption or body weight: once daily oral gavage 14 days, up to 500 (I) or 450 (III) mg/kg/day
# Protocol: (§2) Sprague-Dawley rats and cynomolgus monkeys were dosed once daily for 14 days via oral gavage with compound I or compound III or dose vehicle (68% Capmul PG-8, 20% PEG 400, 2% Tween 20, and 10% Labrasol) according to GLP. There were 10 male and 10 female rats, and there were 3 male and 3 female monkeys. Rats and monkeys were dosed with 0, 50, 150 or 500 mg/kg/day compound I or with 0, 50, 150, 450 mg/kg/day compound III.
# (§3) Toxicity was assessed using clinical observations, body weights, food consumption, and clinical pathology (hematology, coagulation, and serum chemistry).
# (§4) A comprehensive necropsy and gross pathological examination was performed on all animals and selected organs and tissues were collected for histological evaluation.
# (§5) Determinations of hematocrit, hemoglobin concentration, erythrocyte count, total leukocyte count, and platelet count were conducted on all samples. Leukocyte differential and morphologic assessments were performed.
# (§6) Clinical biochemistry determinations included activities of alanine aminotransferase (ALT), aspartate aminotransferase (AST), gamma-glutamyltranspeptidase (GGT), and alkaline phosphatase (ALP) and concentrations of blood urea nitrogen (BUN), creatinine, total protein, albumin, globulin, glucose, cholesterol, triglycerides, total bilirubin, and electrolyte levels (Na, K, P, Cl, Ca).
# Urine samples (monkeys only) were evaluated macroscopically and microscopically and tested for pH, bilirubin, glucose, protein, ketones, blood, urobilinogen, nitrites, leukocytes, and specific gravity.
# [9] = system: HIV-1 BH10 K103N mutant virus; assay: microbe, parasite or virus in culture; assay type: cell-based; details: for EC50: unit inferred; for Fold Change, K103N: Table 7
# [10] = system: Sprague-Dawley rats; assay: 14-day oral toxicity, rats; assay type: in vivo, rat; details: for thyroid microscopic findings / effects on food consumption or body weight: rats; for thyroid microscopic findings: all dose groups except low dose compound III-treated females; for effects on food consumption or body weight: once daily oral gavage 14 days, up to 500 (I) or 450 (III) mg/kg/day
# Protocol: as §2, §3, §4, §5, §6
# [11] = system: wild-type HIV-1 virus; assay: In vitro drug-drug interaction with NRTIs and PIs, MT-4 cells, 45% HS; assay type: cell-based; details: 45% human serum, low (1×) and high (5×) concentration
# Protocol: The in vitro effect of each antiretroviral drug on the antiviral activity of either test article was tested in triplicate on wild-type HIV-1 virus infection of MT-4 human T cells using a standard drug susceptibility assay (DSA) performed in 45% human serum (HS) to provide a better estimate of interactions that would occur under protein binding conditions found in vivo. Compound I or Compound III were titrated alone or in combination with each NRTI or PI.
# The impact of each NRTI or PI on the efficacy of Compound I or Compound III was tested at two different drug concentrations, a “low” (1×) and a “high” (5×) concentration; the high concentration used for each compound was determined from pilot experiments conducted to ensure that measurable inhibition values could still be obtained in the presence of 45% HS.
# These in vitro drug-drug interaction studies were powered primarily to determine the potential for negative interactions between the different classes of HIV drugs, rather than to examine the potential for synergy between the different agents.
# [12] = fresh hepatocytes plated on collagen-coated plates
smiles,measurement,setting,value
"CO[P@](=O)(c1cc(C)cc(/C=C/C#N)c1)c1c(C(N)=O)[nH]c2ccc(Cl)c(F)c12 [Compound I, (2-Carbamoyl-5-chloro-4-fluoro-1H-indol-3-yl)-[3-((E)-2-cyano-vinyl)-5-methyl-phenyl]-(R)-phosphinic acid methyl ester]",half-life at 1 μM,[1]; hepatocytes,1.05 ± 0.667 h
same,"t½, Compound Depletion in Hepatocytes, Human",[2],limited in vitro metabolism
same,half-life at 1 μM,[2]; hepatocytes,3.58 ± 0.8 h
same,"Percentage Plasma Protein Binding, Dogs",[3],99.0%
same,fraction unbound,[3]; plasma,< 0.01
same,inhibition at 20 µM,[4]; recombinant enzyme,21.6%
same,IC50,[5],> 20 µM
same,"IC50, CYP2B6",[5],not observed
same,"Selectivity Index (SI), CC50/EC50 in MT-4 cells",[6],"> 18,000 and > 22,000"
same,CC50,[6],18.6 ± 3.1 µM
same,IC50,[7],> 20 µM
same,"IC50, CYP2D6",[7],not observed
same,effects on food consumption or body weight,[8],No effects
same,EC50,"[9]; Human immunodeficiency virus 1, MT4, read-out: EC50, K103N, Example 16 comparative tables",0.6 ± 0.2 nM
same,"Fold Change, K103N",[9],0.9 ± 0.4 fold
same,EC50,"[9]; read-out: EC50, K103N, Example 16 comparative tables",0.9 nM
same,thyroid microscopic findings,[10],minimal to mild thyroid follicular cell hypertrophy/hyperplasia
same,effects on food consumption or body weight,[10],No effects
same,interaction with 7 NRTIs or 6 PIs,[11],no negative interaction observed; also recorded: none of the seven HIV NRTI drugs or the six HIV PI drugs tested exhibited a measurable negative or antagonistic interaction
"CO[P@](=O)(c1cc(C)cc(/C=C/C#N)c1)c1c(C(N)=O)[nH]c2ccc(Cl)cc12 [Compound III, (2-Carbamoyl-5-chloro-1H-indol-3-yl)-[3-((E)-2-cyano-vinyl)-5-methyl-phenyl]-(R)-phosphinic acid methyl ester]",half-life at 1 μM,[1]; [12],0.867 ± 0.4 h
same,"t½, Compound Depletion in Hepatocytes, Human",[2],limited in vitro metabolism
same,half-life at 1 μM,[2]; [12],2.08 ± 0.917 h
same,"Percentage Plasma Protein Binding, Dogs",[3],99.4%
same,fraction unbound,[3]; dog plasma,< 0.01
same,inhibition at 20 µM,[4]; recombinant human CYP2B6 microsomal protein,22.9%
same,IC50,[5],> 20 µM
same,"IC50, CYP2B6",[5],not observed
same,"Selectivity Index (SI), CC50/EC50 in MT-4 cells",[6],"> 22,000 and > 18,000"
same,CC50,[6],27.3 ± 12.9 µM
same,IC50,[7],> 20 µM
same,"IC50, CYP2D6",[7],not observed
same,organ weights,"[8]; mid and high doses, livers microscopically unremarkable",increased liver weights
same,effects on food consumption or body weight,[8],No effects
same,"Fold Change, K103N",[9],1.2 ± 0.4 fold
same,organ weights,"[10]; rats (females only), mid and high doses, livers microscopically unremarkable",increased liver weights
same,thyroid microscopic findings,[10],minimal to mild thyroid follicular cell hypertrophy/hyperplasia
same,effects on food consumption or body weight,[10],No effects
same,interaction with 7 NRTIs or 6 PIs,[11],no negative interaction observed; also recorded: none of the seven HIV NRTI drugs or the six HIV PI drugs tested exhibited a measurable negative or antagonistic interaction
